Test results published in patent US11220504B2, “Pyrrolo[3,2-d] pyrimidine derivatives for the treatment of viral infections and other diseases” (JANSSEN SCIENCES IRELAND UNLIMITED COMPANY, priority 2012, dated 2022).

What was measured:
[1] = tested on: interferon-stimulated responsive elements (ISRE); assay: Activation of ISRE promoter elements by conditioned media from PBMC (HEK-ISREluc); format: cell-based, human; conditions: Homo sapiens; conditioned media from PBMC transferred to HEK-ISREluc cells, 24 hours; lowest effective concentration; read-out: PBMC LEC
Procedure: The potential of compounds to induce IFN-I was also evaluated by measuring the activation of interferon-stimulated responsive elements (ISRE) by conditioned media from PBMC. The ISRE element of sequence […] (SEQ. ID NO:1) is highly responsive to the STAT1-STAT2-IRF 9 transcription factor, activated upon binding of IFN-I to their receptor IFNAR (Clontech, PT3372-5W). […] A HEK293 cell line stably transfected with pISRE-Luc (HEK-ISREluc) was established to profile of the conditioned PBMC cell culture media.
Briefly, PBMCs were prepared from buffy coats of at least two donors using a standard Ficoll centrifugation protocol. Isolated PBMCs were resuspended in RPMI medium supplemented with 10% human AB serum and 2×10^5 cells/well were dispensed into 384-well plates containing compounds (70 μL total volume). After overnight incubation, 10 μL of supernatant was transferred to 384-well plates containing 5×10^3 HEK-ISREluc cells/well in 30 μL (plated the day before). Following 24 hours of incubation, activation of the ISRE elements was measured by assaying luciferase activity using 40 μL/well Steady Lite Plus substrate (Perkin Elmer) and measured with ViewLux ultraHTS microplate imager (Perkin Elmer). The stimulating activity of each compound on the HEK-ISREluc cells was reported as LEC value, defined as the compound concentration applied to the PBMCs resulting in a luciferase activity at least two fold above the standard deviation of the assay. The LEC in turn indicates the degree of ISRE activation on transfer of a defined amount of PBMC culture medium. Recombinant interferon α-2a (Roferon-A) was used as a standard control compound.

human TLR8 = biological target: T1, human TLR8 (Homo sapiens, UniProt Q9NR97); assay: TLR8 cellular reporter assay (HEK293, NFκB-luc); format: cell-based; conditions: HEK293 cells transfected with CMV-TLR8 and NFκB-luc, 6 hours incubation; lowest effective concentration
T1 construct: expressed in transfected cells; host or cells: HEK293 cells, transient transfection with TLR8 plasmid and NFκB-luc plasmid
T1 sequence (Q9NR97 27-1041): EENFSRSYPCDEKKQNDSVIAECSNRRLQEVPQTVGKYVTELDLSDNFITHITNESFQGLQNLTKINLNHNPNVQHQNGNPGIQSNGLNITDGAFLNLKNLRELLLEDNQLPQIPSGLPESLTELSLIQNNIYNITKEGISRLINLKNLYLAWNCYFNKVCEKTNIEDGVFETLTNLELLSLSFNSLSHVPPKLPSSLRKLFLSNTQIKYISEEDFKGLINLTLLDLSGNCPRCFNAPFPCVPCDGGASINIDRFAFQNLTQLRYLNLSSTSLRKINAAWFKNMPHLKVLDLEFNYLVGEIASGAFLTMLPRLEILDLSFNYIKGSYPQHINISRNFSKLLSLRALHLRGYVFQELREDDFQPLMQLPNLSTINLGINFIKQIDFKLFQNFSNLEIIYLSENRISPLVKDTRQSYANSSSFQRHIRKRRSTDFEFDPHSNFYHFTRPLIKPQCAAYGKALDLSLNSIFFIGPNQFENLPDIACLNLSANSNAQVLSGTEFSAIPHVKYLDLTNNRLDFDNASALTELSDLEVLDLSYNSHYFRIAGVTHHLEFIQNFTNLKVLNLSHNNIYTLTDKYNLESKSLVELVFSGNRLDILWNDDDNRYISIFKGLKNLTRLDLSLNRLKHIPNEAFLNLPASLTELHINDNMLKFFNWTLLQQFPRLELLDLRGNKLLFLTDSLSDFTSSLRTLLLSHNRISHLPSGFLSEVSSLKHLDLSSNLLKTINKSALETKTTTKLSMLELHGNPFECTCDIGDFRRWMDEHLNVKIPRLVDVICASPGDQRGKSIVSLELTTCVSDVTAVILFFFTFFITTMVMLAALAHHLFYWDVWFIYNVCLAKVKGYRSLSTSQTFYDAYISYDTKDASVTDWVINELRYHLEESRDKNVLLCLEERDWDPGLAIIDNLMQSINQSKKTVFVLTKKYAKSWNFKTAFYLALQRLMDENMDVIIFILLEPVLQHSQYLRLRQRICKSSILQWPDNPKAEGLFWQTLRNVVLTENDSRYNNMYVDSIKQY
Procedure: (§1) The ability of compounds to activate human TLR7 and/or TLR8 was assessed in a cellular reporter assay using HEK293 cells transiently transfected with a TLR7 or TLR8 expression vector and NFκB-luc reporter construct.
(§2) Briefly, HEK293 cells were grown in culture medium (DMEM supplemented with 10% FCS and 2 mM Glutamine). […] Thirty microliters of cells were then dispensed into each well in 384-well plates, where 10 μL of compound in 4% DMSO was already present. Following 6 hours incubation at 37° C., 5% CO2, the luciferase activity was determined by adding 15 μL of Steady Lite Plus substrate (Perkin Elmer) to each well and readout performed on a ViewLux ultraHTS microplate imager (Perkin Elmer). Dose response curves were generated from measurements performed in quadruplicates.

human TLR7 = biological target: T2, human TLR7 (Homo sapiens, UniProt Q9NYK1); assay: TLR7 cellular reporter assay (HEK293, NFκB-luc); format: cell-based; conditions: HEK293 cells transfected with CMV-TLR7 and NFκB-luc, 6 hours incubation; lowest effective concentration
T2 construct: expressed in transfected cells; host or cells: HEK293 cells, transient transfection with CMV-TLR7 plasmid and NFκB-luc plasmid
T2 sequence (Q9NYK1 27-1049): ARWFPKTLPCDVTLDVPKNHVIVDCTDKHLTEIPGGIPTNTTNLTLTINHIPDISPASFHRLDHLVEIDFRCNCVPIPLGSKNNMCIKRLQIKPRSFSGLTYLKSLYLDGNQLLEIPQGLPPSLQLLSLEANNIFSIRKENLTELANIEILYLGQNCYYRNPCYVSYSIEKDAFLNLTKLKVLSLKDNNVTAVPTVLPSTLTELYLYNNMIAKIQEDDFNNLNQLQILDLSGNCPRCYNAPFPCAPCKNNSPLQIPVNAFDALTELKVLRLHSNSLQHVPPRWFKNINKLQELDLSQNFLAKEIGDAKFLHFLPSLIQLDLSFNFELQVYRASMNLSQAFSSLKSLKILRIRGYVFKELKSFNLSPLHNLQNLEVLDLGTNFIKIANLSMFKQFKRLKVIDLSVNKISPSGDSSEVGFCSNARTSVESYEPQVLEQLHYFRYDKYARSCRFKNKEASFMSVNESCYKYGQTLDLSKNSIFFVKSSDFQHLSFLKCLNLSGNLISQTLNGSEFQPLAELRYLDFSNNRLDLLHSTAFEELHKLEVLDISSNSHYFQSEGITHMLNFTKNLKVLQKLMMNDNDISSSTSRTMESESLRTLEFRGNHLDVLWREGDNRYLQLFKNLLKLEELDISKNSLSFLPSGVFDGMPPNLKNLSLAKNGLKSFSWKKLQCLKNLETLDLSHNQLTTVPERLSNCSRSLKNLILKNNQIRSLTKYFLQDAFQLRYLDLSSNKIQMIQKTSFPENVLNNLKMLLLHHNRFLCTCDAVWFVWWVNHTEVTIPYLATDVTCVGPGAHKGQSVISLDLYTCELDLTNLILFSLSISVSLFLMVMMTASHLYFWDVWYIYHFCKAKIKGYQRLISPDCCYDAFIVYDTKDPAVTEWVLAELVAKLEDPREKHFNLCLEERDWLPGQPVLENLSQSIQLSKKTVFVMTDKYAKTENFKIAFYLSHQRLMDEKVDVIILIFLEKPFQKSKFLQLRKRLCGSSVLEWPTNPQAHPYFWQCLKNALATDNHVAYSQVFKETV
Procedure: as §1, §2

Compound	minimal effective concentration [1] [µM]	TLR8 LEC (human TLR8) [µM]	TLR7 LEC (human TLR7) [µM]
CCC[C@H](CO)Nc1nc(N)nc2ccn(Cc3ccccc3)c12 [Compound 31]	0.16	>25	0.22
CC(C)CNc1nc(N)nc2ccn(Cc3ccccc3)c12 [Compound 32]	0.52	>25	0.91
CCCC(C)Nc1nc(N)nc2ccn(Cc3ccccc3)c12 (stereo not drawn) [Compound 33]	0.04	>25	0.03
COCCNc1nc(N)nc2ccn(Cc3ccccc3)c12 [Compound 34]	0.54	>25	0.91
CCNc1nc(N)nc2ccn(Cc3ccccc3)c12 [Compound 35]	0.7	>25	1.49
Nc1nc(NCCCO)c2c(ccn2Cc2ccccc2)n1 [Compound 36]	0.59	>25	1.06
CCCC[C@@H](CCO)Nc1nc(N)nc2ccn(Cc3ccccc3)c12 [Compound 37]	0.007	>25	0.005
CC[C@H](C)[C@@H](CO)Nc1nc(N)nc2ccn(Cc3ccccc3)c12 [Compound 38]	0.63	>25	0.54
CCC[C@@H](CCO)Nc1nc(N)nc2ccn(Cc3ccncc3)c12 [Compound 39]	0.009	>25	0.17
CCCC[C@@H](CCO)Nc1nc(N)nc2ccn(Cc3ccncc3)c12 [Compound 40]	0.004	24.61	0.12
CCCCNc1nc(N)nc2ccn(Cc3ccc(OC)cc3)c12 [Compound 41]	0.11	>25	0.09
CCCCNc1nc(N)nc2ccn(Cc3ccc(F)cc3)c12 [Compound 42]	0.16	>25	0.28
CCCCNc1nc(N)nc2ccn(Cc3ccccc3F)c12 [Compound 43]	0.17	>25	0.11
CC(CNc1nc(N)nc2ccn(Cc3ccccc3)c12)C1CC1 (stereo not drawn) [Compound 44]	2.45	>25	1.51
Nc1nc(NCc2ccoc2)c2c(ccn2Cc2ccccc2)n1 [Compound 45]	0.74	>25	19.9
CC1CC1CNc1nc(N)nc2ccn(Cc3ccccc3)c12 (stereo not drawn) [Compound 46]	0.17	>25	0.83
CC(C)=CCNc1nc(N)nc2ccn(Cc3ccccc3)c12 [Compound 47]	1.79	>25	17.5
Cc1cc(CNc2nc(N)nc3ccn(Cc4ccccc4)c23)no1 [Compound 48]	0.03	>25	0.05
Cn1ccc(CNc2nc(N)nc3ccn(Cc4ccccc4)c23)n1 [Compound 49]	2.34	>25	22.43
CCCCNc1nc(N)nc2ccn(Cc3cc4ccccc4cn3)c12 [Compound 50]	0.13	>25	1.01
CC(C)CCNc1nc(N)nc2ccn(Cc3ccccc3)c12 [Compound 51]	0.59	>25	5.14
CCCCNc1nc(N)nc2ccn(CC3CCCCC3)c12 [Compound 52]	0.09	>25	0.12
CCCCNc1nc(N)nc2ccn(CC3CC3)c12 [Compound 53]	0.07	>25	0.38
